Laboratory results: paper PMC5519534, “AM-37 and ST-36 Are Small Molecule Bombesin Receptor Antagonists” (Frontiers in Endocrinology, 2017)
Marks after values point to notes of the source that are not given here.

Columns and labels:
BB1R [1] = molecular target: T1, BB1R (Homo sapiens, UniProt P28336); assay: Inhibition of specific 125I-BA1 binding to BB1R-transfected NCI-H1299 cells
T1 construct: expressed in transfected cells; host or cells: NCI-H1299
Description: (§1) Non-small cell lung cancer cell line NCI-H1299 (ATCC, Manassas, VA, USA) was stably transfected with BB1R, BB2R, and BRS-3. The transfected cells were grown in RPMI-1640 containing 10% fetal bovine serum (FBS) with 0.3 mg/ml geneticin (Invitrogen, Grand Island, NY, USA). The transfected cells, which contained approximately 100,000 receptors/cell, were weekly split using trypsin/EDTA ([13]). In addition, lung cancer cell lines NCI-H727, H1299, and H1975 were purchased from ATCC and cultured in RPMI-1640, which contained 10% FBS. The cell types were derived from different human biopsy specimens. These studies were approved by the NIDDK biospecimens and biosafety committees.
(§2) The ability of AM-37, ST-36, AM-13, and AM-14 to inhibit specific ^125I-BA1 binding to NSCLC cells transfected stably with BB1R, BB2R, and BRS-3 was investigated. NSCLC cells were placed in 24 well plates. When confluent, the cells were washed three times with PBS. The cells were incubated with binding buffer (PBS containing 0.25% bovine serum albumin and 0.025% bacitracin, Sigma-Aldrich, St. Louis, MO, USA). Various concentrations of AM-37, ST-36, AM-13, or AM-14 were added to the cells for 10 min, followed by 100,000 cpm of ^125I-BA1 (0.16 nM) and incubated at 37°C for 30 min when equilibrium of binding was reached. The cells were rinsed three times with binding buffer for 2 min at 4°C. The cells that contained bound peptide dissolved in 0.2 N NaOH and counted in a Wallac 1470 γ-counter. The Ki was calculated as described ([15]).

BB2R [2] = molecular target: T2, BB2R (Homo sapiens, UniProt P30550); assay: Inhibition of specific 125I-BA1 binding to BB2R-transfected NCI-H1299 cells; conditions: inhibition of specific 125I-BA1 binding; BB2R-transfected NCI-H1299 cells
T2 construct: expressed in transfected cells; host or cells: NCI-H1299
T2 sequence (P30550 whole entry): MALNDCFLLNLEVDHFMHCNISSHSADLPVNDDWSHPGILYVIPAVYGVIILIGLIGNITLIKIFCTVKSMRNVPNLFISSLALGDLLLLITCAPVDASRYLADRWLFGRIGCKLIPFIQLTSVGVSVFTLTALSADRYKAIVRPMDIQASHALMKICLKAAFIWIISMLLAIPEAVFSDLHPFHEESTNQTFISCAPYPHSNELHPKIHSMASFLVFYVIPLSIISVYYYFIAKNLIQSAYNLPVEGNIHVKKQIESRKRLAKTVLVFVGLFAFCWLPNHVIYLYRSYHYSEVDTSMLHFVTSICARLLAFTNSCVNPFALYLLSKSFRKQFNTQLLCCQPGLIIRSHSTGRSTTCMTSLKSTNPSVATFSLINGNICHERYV
Text: Non-small cell lung cancer cell line NCI-H1299 (ATCC, Manassas, VA, USA) was stably transfected with BB1R, BB2R, and BRS-3. […] The transfected cells, which contained approximately 100,000 receptors/cell, were weekly split using trypsin/EDTA ([13]). […] The cell types were derived from different human biopsy specimens. These studies were approved by the NIDDK biospecimens and biosafety committees.
NSCLC cells were placed in 24 well plates. When confluent, the cells were washed three times with PBS. […] The cells were rinsed three times with binding buffer for 2 min at 4°C. […] The Ki was calculated as described ([15]).

BRS-3 [3] = molecular target: T3, BRS-3 (Homo sapiens, UniProt P32247); assay: Inhibition of specific 125I-BA1 binding to BRS-3-transfected NCI-H1299 cells; conditions: inhibition of specific 125I-BA1 binding; BRS-3-transfected NCI-H1299 cells
T3 construct: expressed in transfected cells; host or cells: NCI-H1299
T3 sequence (P32247 1-399): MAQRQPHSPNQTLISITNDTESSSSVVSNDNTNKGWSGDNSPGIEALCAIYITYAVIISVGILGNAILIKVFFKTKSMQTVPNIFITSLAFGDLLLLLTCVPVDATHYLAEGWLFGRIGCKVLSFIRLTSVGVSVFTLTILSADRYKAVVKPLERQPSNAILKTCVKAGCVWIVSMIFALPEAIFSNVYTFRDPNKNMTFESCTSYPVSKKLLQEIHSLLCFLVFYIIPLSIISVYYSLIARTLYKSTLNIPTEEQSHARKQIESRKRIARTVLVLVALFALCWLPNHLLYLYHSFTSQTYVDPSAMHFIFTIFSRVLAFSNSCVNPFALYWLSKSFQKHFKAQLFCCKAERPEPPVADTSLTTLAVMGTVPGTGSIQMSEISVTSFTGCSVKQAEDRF
Description: as §1, §2

BB1R [4] = molecular target: T1, BB1R; assay: Cytosolic Ca2+ (Fura-2AM) in NCI-H1299 cells transfected with BB1R; type: cell-based; conditions: for Increase in cytosolic Ca2+, BB1R: 30 µM small molecule followed by 10 nM BA1; for Effect on the increase in cytosolic Ca2+ caused by BA1 / Effect on basal cytosolic Ca2+: 30 µM, BB1R-transfected cells; for Effect on the increase in cytosolic Ca2+ caused by BA1: 10 nM BA1
Description: as §1
(§3) The ability of AM-37, ST-36, AM-13, and AM-14 to function as BBR antagonists was investigated. NSCLC cells transfected with BB1R, BB2R, and BRS-3 were harvested and loaded with Fura-2AM (Calbiochem, La Jolla, CA, USA) as described previously ([16]). The excitation ratio was determined at 340 and 380 nm with an emission wavelength of 510 nm.

BB2R [5] = molecular target: T2, BB2R; assay: Cytosolic Ca2+ (Fura-2AM) in NCI-H1299 cells transfected with BB2R; type: cell-based; conditions: for Increase in cytosolic Ca2+, BB2R: 30 µM small molecule followed by 10 nM BA1
Description: as §1, §3

BRS-3 [6] = molecular target: T3, BRS-3; assay: Cytosolic Ca2+ (Fura-2AM) in NCI-H1299 cells transfected with BRS-3; type: cell-based; conditions: for Increase in cytosolic Ca2+, BRS-3: 30 µM small molecule followed by 10 nM BA1
Description: as §1, §3

NSCLC cells = assay: Ionomycin-induced cytosolic Ca2+ in NSCLC cells (specificity); type: cell-based, human; conditions: 5 µg/ml ionomycin
Description: as §3

EGFR = EGFR tyrosine phosphorylation by western blot, NCI-H1299 cells transfected with BB2R; type: cell-based, human; conditions: 10 µM pretreatment, then 100 nM BA1
Description: (§4) The tyrosine phosphorylation of the EGFR and ERK was investigated by western blot. NSCLC cells transfected with BB1R, BB2R, and BRS-3 were placed in 10 cm dishes. When the cells were confluent, they were placed in SIT medium (RPMI-1640 containing 3 × 10^−8 M sodium selenite, 5 µg/ml bovine insulin, and 10 µg/ml apo-transferrin; Sigma-Aldrich, St. Louis, MO, USA) for 3 h. […] Cell extracts were made as described previously ([16]), and 600 µg of protein extract was immunoprecipitated with 4 µg anti-phosphotyrosine antibody (Becton Dickenson, USA). The immunoprecipitates were fractionated using a 4–20% polyacrylamide gel (Novex, San Diego, CA, USA). Proteins were transferred to a nitrocellulose membrane and incubated with 2 µg anti-EGFR or anti-ERK antibody (Cell Signaling Technologies, Danvers, MA, USA). After washing the blot, it was incubated with enhanced chemiluminescence detection reagent (Thermo Scientific) for 5 min and exposed to Biomax XAR film (Carestream, Rochester, NY, USA). The band intensity was determined using a Kodak image station 440 densitometer. Alternatively, 20 µg of protein extract was loaded onto polyacrylamide gels and after transfer to nitrocellulose, the blot was probed with anti-PY^1,068-EGFR, anti-EGFR, anti-PY^204ERK, or anti-ERK (Cell Signaling Technologies, Danvers, MA, USA).

ERK = ERK tyrosine phosphorylation by western blot, NCI-H1299 cells transfected with BB2R; type: cell-based, human; conditions: 10 µM pretreatment, then 100 nM BA1
Description: as §4

NCI-H1299 cells = assay: MTT proliferation assay, NCI-H1299; type: cell-based, human; conditions: for IC50: Homo sapiens, NCI-H1299, 48 h, MTT, 2 days, SIT medium
Description: The proliferation of NSCLC cells was investigated using the 3-(4,5-demethylthiazol-2-yl)-[…]-2H-tetrazolium bromide (MTT) assay as described previously ([16]). NCI-H727, H1299, and H1975 cells were placed in SIT medium and varying concentration of AM-37, ST-36, AM-13, or AM-14 added. After 2 days, 0.1% MTT solution (15 µl) was added. After 4 h, DMSO (150 µl) was added and the absorbance at 570 nm was determined.

NTR = molecular target: T4, NTR (Homo sapiens, UniProt P30989); assay: Neurotensin-induced cytosolic Ca2+ in NSCLC cells (specificity); type: cell-based; conditions: 10 nM neurotensin
T4 construct: endogenous in cells; host or cells: NCI-H1299 (transfected with bombesin receptors)
T4 sequence (P30989 whole entry): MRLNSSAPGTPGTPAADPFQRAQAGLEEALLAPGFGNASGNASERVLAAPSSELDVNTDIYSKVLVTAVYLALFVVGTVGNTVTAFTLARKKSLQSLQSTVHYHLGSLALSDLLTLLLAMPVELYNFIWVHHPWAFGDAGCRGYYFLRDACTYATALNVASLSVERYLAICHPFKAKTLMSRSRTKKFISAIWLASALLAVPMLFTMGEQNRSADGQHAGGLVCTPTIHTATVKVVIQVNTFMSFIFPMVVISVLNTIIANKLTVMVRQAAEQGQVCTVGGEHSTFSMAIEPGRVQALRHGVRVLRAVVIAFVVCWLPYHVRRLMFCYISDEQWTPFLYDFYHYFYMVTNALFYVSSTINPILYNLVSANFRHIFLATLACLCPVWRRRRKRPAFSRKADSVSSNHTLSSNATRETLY

T1 sequence (P28336 whole entry): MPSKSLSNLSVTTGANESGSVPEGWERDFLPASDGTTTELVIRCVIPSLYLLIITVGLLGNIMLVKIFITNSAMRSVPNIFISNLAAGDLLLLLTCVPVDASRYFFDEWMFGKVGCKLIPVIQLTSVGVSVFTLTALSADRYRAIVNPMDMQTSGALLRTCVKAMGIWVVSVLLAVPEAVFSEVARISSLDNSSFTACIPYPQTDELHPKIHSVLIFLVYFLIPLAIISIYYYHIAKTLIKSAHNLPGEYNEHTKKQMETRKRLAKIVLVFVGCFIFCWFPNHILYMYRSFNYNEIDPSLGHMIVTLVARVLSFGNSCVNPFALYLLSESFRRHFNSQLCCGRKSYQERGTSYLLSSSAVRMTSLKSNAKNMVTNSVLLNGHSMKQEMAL

| SMILES | Ki (BB1R [1]) | Ki (BB2R [2]) | Ki (BRS-3 [3]) | Increase in cytosolic Ca2+, BB1R (BB1R [4]) | Increase in cytosolic Ca2+, BB2R (BB2R [5]) | Increase in cytosolic Ca2+, BRS-3 (BRS-3 [6]) | Effect on the increase in cytosolic Ca2+ caused by BA1 (BRS-3 [6]; 30 µM, 10 nM BA1, BRS-3-transfected cells) | Effect on basal cytosolic Ca2+ (BRS-3 [6]; 30 µM, BRS-3-transfected cells) | Effect on the ability of ION to increase Ca2+ (NSCLC cells) | Effect of pretreatment on BA1-induced EGFR tyrosine phosphorylation (EGFR) | Effect of pretreatment on BA1-induced ERK tyrosine phosphorylation (ERK) | Effect on the increase in cytosolic Ca2+ caused by BA1 (BB1R [4]) | Effect on basal cytosolic Ca2+ (BB1R [4]) | Effect on the increase in cytosolic Ca2+ caused by BA1 (BB2R [5]; 30 µM, 10 nM BA1, BB2R-transfected cells) | Effect on basal cytosolic Ca2+ (BB2R [5]; 30 µM, BB2R-transfected cells) | IC50 (NCI-H1299 cells) | Effect on the ability of NT to increase cytosolic Ca2+ (NTR) | Effect on NCI-H1299 proliferation (NCI-H1299 cells; 3 µM) | Effect on NCI-H1299 proliferation (NCI-H1299 cells; 30 µM) |
| --- | --- | --- | --- | --- | --- | --- | --- | --- | --- | --- | --- | --- | --- | --- | --- | --- | --- | --- | --- |
| COc1ccc(NC(=O)N[C@H](Cc2c[nH]c3ccccc23)C(=O)NCC2(c3ccc(F)cc3)CCCCC2)cc1 [AM-13, (R)-N-[[1-(4-fluorophenyl)cyclohexyl]methyl]-3-(1H-indol-3-yl)-2-[3-(4-methoxyphenyl)ureido]propanamide] | > 100 µM | 27 ± 4 µM | > 100 µM | 7 ± 0.8^a nM | 5 ± 0.6^a nM | 2 ± 0.3^a nM | partially blocked | no effect | no effect | BA1 increased strongly EGFR tyrosine phosphorylation | not |  |  |  |  |  |  |  |  |
| COc1ccc(NC(=O)N[C@@H](Cc2c[nH]c3ccccc23)C(=O)NCC2(c3ccc(F)cc3)CCCCC2)cc1 [AM-14] | > 100 µM | 45 ± 8 µM | > 100 µM |  | 6 + 0.5^a nM | 3 + 0.4^a nM |  |  | no effect | little effect | little effect | partially blocked | no effect | partially blocked | no effect | > 50 µM |  |  |  |
| COc1ccc(NC(=O)N[C@H](Cc2c[nH]c3ccccc23)C(=O)NCC2(c3cccnc3)CCCCC2)cc1 [AM-37, (R)-3-(1H-indol-3-yl)-2-[3-(4-methoxyphenyl)ureido]-N-[[1-(3-pyridinyl)cyclohexyl]methyl]propanamide] | 3.6 ± 0.5 µM | 1.4 ± 0.2 µM | 5.5 ± 0.6 µM | 1 ± 0.6^a nM | 0^a nM | 0^a nM |  |  |  | addition of BA1 had little effect | decreased significantly | blocked | no effect |  |  | 16 µM | no effect | little effect | strongly inhibited |
